Laboratory results taken from US11739098B2 (BRISTOL-MYERS SQUIBB COMPANY, priority 2017, dated 2023).

Experiments:
Format in all cases: cell-based
human TLR7 = molecular target: T1, human TLR7 (Homo sapiens, UniProt Q9NYK1); assay: TLR7 inhibition reporter assay (HEK-Blue cells, SEAP reporter, gardiquimod stimulation); conditions: HEK-Blue cells overexpressing human TLR7, SEAP reporter, gardiquimod 7.5 μM
T1 construct: host or cells: HEK-Blue cells (HEK293-derived reporter line)
T1 sequence (Q9NYK1 27-1049): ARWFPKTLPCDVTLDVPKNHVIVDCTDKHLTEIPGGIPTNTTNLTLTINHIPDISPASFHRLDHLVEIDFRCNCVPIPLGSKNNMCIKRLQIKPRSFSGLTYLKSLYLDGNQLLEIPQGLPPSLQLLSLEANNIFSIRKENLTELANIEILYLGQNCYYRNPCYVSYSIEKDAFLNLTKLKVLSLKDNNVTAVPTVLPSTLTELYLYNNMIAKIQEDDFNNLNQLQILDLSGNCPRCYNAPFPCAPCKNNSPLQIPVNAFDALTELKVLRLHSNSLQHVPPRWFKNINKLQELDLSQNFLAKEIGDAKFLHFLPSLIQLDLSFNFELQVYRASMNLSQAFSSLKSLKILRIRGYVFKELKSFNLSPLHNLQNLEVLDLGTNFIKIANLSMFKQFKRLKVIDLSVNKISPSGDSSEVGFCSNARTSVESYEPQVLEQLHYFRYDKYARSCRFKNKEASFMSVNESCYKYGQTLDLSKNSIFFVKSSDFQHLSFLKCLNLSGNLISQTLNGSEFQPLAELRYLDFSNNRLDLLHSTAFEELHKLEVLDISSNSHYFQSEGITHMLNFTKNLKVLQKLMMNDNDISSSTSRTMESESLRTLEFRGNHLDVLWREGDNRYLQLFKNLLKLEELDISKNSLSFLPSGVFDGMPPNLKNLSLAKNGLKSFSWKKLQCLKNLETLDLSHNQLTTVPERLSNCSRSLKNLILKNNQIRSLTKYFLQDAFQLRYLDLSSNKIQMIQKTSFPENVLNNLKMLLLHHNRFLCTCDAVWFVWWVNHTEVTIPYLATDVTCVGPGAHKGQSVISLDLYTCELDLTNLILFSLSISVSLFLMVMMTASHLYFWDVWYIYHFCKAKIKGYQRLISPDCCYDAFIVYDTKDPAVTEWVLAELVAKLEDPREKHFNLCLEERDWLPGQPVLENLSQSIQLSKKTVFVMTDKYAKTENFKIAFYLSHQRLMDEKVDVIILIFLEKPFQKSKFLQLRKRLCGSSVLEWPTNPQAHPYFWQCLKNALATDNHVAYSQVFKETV
Outline: (§1)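 After 22 h at 37 °C, SEAP secretion was measured from human TLR7-, TLR8- or TLR9-expressing HEK-Blue reporter cells given compound (0.05 nM–50 μM) 30 min before agonist: 7.5 μM gardiquimod, 15.9 μM R848 or 5 nM ODN2006 respectively. Percent inhibition referenced to agonist-plus-DMSO and known-inhibitor wells.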

human TLR8 = molecular target: T2, human TLR8 (Homo sapiens, UniProt Q9NR97); assay: TLR8 inhibition reporter assay (HEK-Blue cells, SEAP reporter, R848 stimulation); conditions: HEK-Blue cells overexpressing human TLR8, SEAP reporter, R848 15.9 μM
T2 construct: host or cells: HEK-Blue cells (HEK293-derived reporter line)
T2 sequence (Q9NR97 27-1041): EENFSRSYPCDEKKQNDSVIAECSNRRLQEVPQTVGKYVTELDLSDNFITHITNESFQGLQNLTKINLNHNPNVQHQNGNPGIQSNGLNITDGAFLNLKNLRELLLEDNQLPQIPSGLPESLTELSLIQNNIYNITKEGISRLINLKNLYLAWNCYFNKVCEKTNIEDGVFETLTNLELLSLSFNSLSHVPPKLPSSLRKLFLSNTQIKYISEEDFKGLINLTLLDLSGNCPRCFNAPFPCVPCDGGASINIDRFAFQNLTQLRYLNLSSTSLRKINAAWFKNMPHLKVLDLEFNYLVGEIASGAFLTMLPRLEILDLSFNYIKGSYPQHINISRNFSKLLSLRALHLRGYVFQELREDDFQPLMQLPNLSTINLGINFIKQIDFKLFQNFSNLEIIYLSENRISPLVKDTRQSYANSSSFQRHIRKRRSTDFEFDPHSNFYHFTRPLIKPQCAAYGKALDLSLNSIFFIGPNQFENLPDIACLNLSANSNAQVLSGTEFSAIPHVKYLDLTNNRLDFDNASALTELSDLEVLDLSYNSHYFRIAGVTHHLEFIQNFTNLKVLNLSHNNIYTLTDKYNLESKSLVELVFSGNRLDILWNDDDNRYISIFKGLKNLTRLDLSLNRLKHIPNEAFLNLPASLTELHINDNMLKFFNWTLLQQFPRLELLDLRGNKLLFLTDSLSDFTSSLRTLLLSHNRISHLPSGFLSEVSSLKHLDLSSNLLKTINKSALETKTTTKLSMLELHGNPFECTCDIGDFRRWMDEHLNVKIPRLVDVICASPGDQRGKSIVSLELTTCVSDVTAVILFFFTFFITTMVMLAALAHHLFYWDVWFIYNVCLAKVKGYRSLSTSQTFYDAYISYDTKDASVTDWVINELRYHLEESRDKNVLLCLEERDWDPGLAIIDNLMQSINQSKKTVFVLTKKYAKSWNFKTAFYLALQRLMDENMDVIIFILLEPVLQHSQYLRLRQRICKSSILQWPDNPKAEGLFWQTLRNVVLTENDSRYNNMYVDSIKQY
Outline: as §1

human TLR9 = molecular target: T3, human TLR9 (Homo sapiens, UniProt Q9NR96); assay: TLR9 inhibition reporter assay (HEK-Blue cells, SEAP reporter, ODN2006 stimulation); conditions: HEK-Blue cells overexpressing human TLR9, SEAP reporter, ODN2006 5 nM
T3 construct: host or cells: HEK-Blue cells (HEK293-derived reporter line)
T3 sequence (Q9NR96 26-1032): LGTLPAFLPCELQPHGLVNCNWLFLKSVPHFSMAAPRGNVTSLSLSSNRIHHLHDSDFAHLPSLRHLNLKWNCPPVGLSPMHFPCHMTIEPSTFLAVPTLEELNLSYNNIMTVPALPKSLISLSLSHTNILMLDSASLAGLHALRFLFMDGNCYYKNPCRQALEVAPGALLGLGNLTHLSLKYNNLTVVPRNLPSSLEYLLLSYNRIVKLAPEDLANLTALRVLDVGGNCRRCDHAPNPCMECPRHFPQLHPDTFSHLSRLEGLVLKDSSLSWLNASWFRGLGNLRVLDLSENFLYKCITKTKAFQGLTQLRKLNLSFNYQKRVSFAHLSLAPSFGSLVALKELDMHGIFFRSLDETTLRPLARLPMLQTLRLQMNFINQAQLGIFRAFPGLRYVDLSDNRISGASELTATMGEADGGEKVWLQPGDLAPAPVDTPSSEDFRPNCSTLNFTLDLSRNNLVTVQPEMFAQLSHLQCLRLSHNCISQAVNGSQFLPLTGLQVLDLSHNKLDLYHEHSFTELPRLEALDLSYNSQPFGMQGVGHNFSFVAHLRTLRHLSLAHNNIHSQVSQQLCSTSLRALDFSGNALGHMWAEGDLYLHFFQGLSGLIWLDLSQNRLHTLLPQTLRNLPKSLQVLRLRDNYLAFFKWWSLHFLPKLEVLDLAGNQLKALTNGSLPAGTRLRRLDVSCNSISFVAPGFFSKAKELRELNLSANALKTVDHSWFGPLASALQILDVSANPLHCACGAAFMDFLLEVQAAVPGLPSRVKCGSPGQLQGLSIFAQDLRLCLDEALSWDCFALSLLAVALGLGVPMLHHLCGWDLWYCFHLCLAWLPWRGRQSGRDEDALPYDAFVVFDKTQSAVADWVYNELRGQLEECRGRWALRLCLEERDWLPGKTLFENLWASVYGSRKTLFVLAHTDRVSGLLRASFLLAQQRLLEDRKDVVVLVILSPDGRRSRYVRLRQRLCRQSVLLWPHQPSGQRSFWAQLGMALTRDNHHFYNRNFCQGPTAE
Outline: as §1

IC50 (human TLR7) [µM] | IC50 (human TLR8) [µM] | IC50 (human TLR9) [µM] | SMILES
< 0.1 | < 0.1 | 1 to 50 | Cc1cc(-c2[nH]c3ccc(C4CCN(Cc5ccn(C)n5)CC4)cc3c2C(C)C)cn2nnnc12 [Example 884, 6-(3-isopropyl-5-(1-((1-methyl-1H-pyrazol-3-yl)methyl)piperidin-4-yl)-1H-indol-2-yl)-8-methyltetrazolo[1,5-a]pyridine]
< 0.1 | < 0.1 | 1 to 50 | COc1cc(-c2[nH]c3ccc(C4CCN(CC(=O)N(C)C)CC4)cc3c2C(C)C)cc2nc(C)nn12 [Example 348, 2-(4-(3-isopropyl-2-(5-methoxy-2-methyl-[1,2,4]triazolo[1,5-a]pyridin-7-yl)-1H-indol-5-yl)piperidin-1-yl)-N,N-dimethylacetamide]
< 0.1 | < 0.1 | 1 to 50 | Cc1cc(-c2[nH]c3ccc(C4CCNCC4)cc3c2C(C)C)cc2ccnn12 [Example 143, 5-(3-isopropyl-5-(piperidin-4-yl)-1H-indol-2-yl)-7-methylpyrazolo[1,5-a]pyridine]
< 0.1 | < 0.1 | 1 to 50 | CC(C)c1c(-c2cn(C)c3ncccc23)[nH]c2ccc(C3CCN(CC(=O)N4CCOCC4)CC3)cc12 [Example 294, 2-(4-(3-isopropyl-2-(1-methyl-1H-pyrrolo[2,3-b]pyridin-3-yl)-1H-indol-5-yl)piperidin-1-yl)-1-morpholinoethan-1-one]
0.1 to 1 | > 3.13 | > 50 | Cc1cc2cc(-c3[nH]c4ccc(C5CCN(C6COC6)CC5)cc4c3C(C)C)ccn2n1 [Example 726, 5-(3-isopropyl-5-(1-(oxetan-3-yl)piperidin-4-yl)-1H-indol-2-yl)-2-methylpyrazolo[1,5-a]pyridine]
< 0.1 | < 0.1 | 1 to 50 | CC(C)c1c(-c2ccnc3[nH]ncc23)[nH]c2ccc(C3CCN(C(=O)CNCC(C)(C)N4CCOCC4)CC3)cc12 [Example 580, 1-(4-(3-isopropyl-2-(1H-pyrazolo[3,4-b]pyridin-4-yl)-1H-indol-5-yl)piperidin-1-yl)-2-((2-methyl-2-morpholinopropyl)amino)ethan-1-one]
< 0.1 | 0.1 to 1 | 1 to 50 | CC(C)c1c(-c2ccn3nncc3c2)[nH]c2ccc(C3CCN(CC(=O)N(C)C)CC3)cc12 [Example 302, 2-(4-(2-([1,2,3]triazolo[1,5-a]pyridin-5-yl)-3-isopropyl-1H-indol-5-yl)piperidin-1-yl)-N,N-dimethylacetamide]
< 0.1 | < 0.1 | 0.1 to 1 | CNC(=O)CN1CCC(c2ccc3[nH]c(-c4cc(C)c5nccn5c4)c(C(C)C)c3c2)CC1 [Example 397, 2-(4-(3-isopropyl-2-(8-methylimidazo[1,2-a]pyridin-6-yl)-1H-indol-5-yl)piperidin-1-yl)-N-methylacetamide]
1 to 50 | 1 to 50 | 1 to 50 | Cc1cc(-c2[nH]c3ccc(C4CCN(C5COC5)CC4)cc3c2C(C)C)cn2nncc12 [Example 737, 6-(3-isopropyl-5-(1-(oxetan-3-yl)piperidin-4-yl)-1H-indol-2-yl)-4-methyl-[1,2,3]triazolo[1,5-a]pyridine]
< 0.1 | < 0.1 | 0.1 to 1 | Cc1cc(-c2[nH]c3ccc(C4CCN(C5CCS(=O)(=O)CC5)CC4)cc3c2C(C)C)cn2ccnc12 [Example 799, 4-(4-(3-isopropyl-2-(8-methylimidazo[1,2-a]pyridin-6-yl)-1H-indol-5-yl)piperidin-1-yl)tetrahydro-2H-thiopyran 1,1-dioxide]
< 0.1 | < 0.1 | 1 to 50 | CC(C)c1c(-c2cn3ccnc3cc2Cl)[nH]c2ccc(C3CCNCC3)cc12 [Example 128, 7-chloro-6-(3-isopropyl-5-(piperidin-4-yl)-1H-indol-2-yl)imidazo[1,2-a]pyridine]
< 0.1 | < 0.1 | 0.1 to 1 | CNC(=O)CN1CCC(c2ccc3[nH]c(-c4cc(C)n5cncc5c4)c(C(C)C)c3c2)CC1 [Example 440, 2-(4-(3-isopropyl-2-(5-methylimidazo[1,5-a]pyridin-7-yl)-1H-indol-5-yl)piperidin-1-yl)-N-methylacetamide]
< 0.1 | < 0.1 | 0.1 to 1 | CCc1c(-c2ccnc3[nH]ncc23)[nH]c2ccc(C3CCNCC3)cc12 [Example 229, 4-(3-ethyl-5-(piperidin-4-yl)-1H-indol-2-yl)-1H-pyrazolo[3,4-b]pyridine]
< 0.1 | < 0.1 | 0.1 to 1 | CC(C)c1c(-c2cc(CO)c3nccn3c2)[nH]c2ccc(C3CCN(CC(=O)N(C)C)CC3)cc12 [Example 329, 2-(4-(2-(8-(hydroxymethyl)imidazo [1,2-a]pyridin-6-yl)-3-isopropyl-1H-indol-5-yl)piperidin-1-yl)-N,N-dimethylacetamide]
